Assay results: ChEMBL document CHEMBL1125667, “Receptor-based design of novel dihydrofolate reductase inhibitors: benzimidazole and indole derivatives” (J Med Chem, 1991)
Each block holds one molecule with its values, some of them ahead of it.

Legend:
[1] = biological target: T1, Dihydrofolate reductase (Rattus norvegicus) (UniProt Q920D2); assay: Inhibitory activity against Dihydrofolate reductase obtained from rat liver
T1 sequence (whole entry): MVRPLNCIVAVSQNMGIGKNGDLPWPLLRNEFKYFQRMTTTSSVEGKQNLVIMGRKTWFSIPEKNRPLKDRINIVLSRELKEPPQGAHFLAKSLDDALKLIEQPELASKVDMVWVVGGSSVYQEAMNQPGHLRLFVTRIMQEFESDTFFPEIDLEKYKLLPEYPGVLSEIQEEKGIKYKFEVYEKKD

[2] = biological target: T2, Dihydrofolate reductase (Escherichia coli, UniProt P0ABQ4); assay: (§1) Inhibitory activity against Dihydrofolate reductase obtained from Escherichia coli; conditions: read-out: I50
T2 sequence (P0ABQ4 whole entry): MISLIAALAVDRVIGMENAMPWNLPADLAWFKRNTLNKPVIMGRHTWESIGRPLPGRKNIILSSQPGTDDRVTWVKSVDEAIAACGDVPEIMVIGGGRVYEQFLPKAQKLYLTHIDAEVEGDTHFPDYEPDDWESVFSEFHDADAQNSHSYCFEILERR

[3] = biological target: T3, Dihydrofolate reductase (Escherichia coli) (UniProt P0ABQ4); assay: as §1
T3 sequence (whole entry): T2 sequence (P0ABQ4 whole entry)

SMILES: Nc1cc2c(N)cc(Cc3ccccc3)cc2[nH]1
- I28 [1]: 500 µM
- IC50 [2]: 100 µM

SMILES: Nc1nc2c(N)c3c(cc2[nH]1)C1(CC3)SCCS1
- I14 [1]: 14 µM
- I31 [3]: 140 µM

SMILES: Nc1nc2c(N)c3c(cc2[nH]1)CCC3
- I7 [1]: 360 µM
- I13 [3]: 360 µM

Continued, values first:

- I5 [1]: 300 µM
- I42 [3]: 300 µM
SMILES: Nc1nc2c(N)cc(Cc3ccccc3)cc2[nH]1

- I16 [1]: 100 µM
- I14 [3]: 100 µM
SMILES: Nc1nc2c(N)cc(C(=O)c3ccccc3)cc2[nH]1
